# Experimental data taken from ChEMBL document CHEMBL1157915, “Bivalent beta-carbolines as potential multitarget anti-Alzheimer agents” (J Med Chem, 2010).
# “And” between values parts separate entries of the source, which are not always exact repeats. Equal values may be shown once.
# Assays:
# [1] = target: Acetylcholinesterase (Electrophorus electricus, UniProt O42275)
# Description: Inhibition of electric eel AChE by modified Ellman's method
# [2] = target: Cholinesterase (Equus caballus, UniProt P81908)
# Description: Inhibition of equine serum BChE by modified Ellman's method
# [3] = Cytotoxicity against mouse L12-G10 cells at 50 uM by MTT assay; format: cell-based; conditions: l12-g10, 50 µM
# [4] = Cytotoxicity against mouse L12-G10 cells by MTT assay; format: cell-based
# [5] = target: Glutamate NMDA receptor; GRIN1/GRIN2B (Homo sapiens, UniProt Q05586+Q13224); assay: Displacement of [3H]ifenprodil from human NR1-1a/NR2B receptor expressed in mouse L13-E6 cells; format: cell-based
# Chain of Glutamate NMDA receptor; GRIN1/GRIN2B (Q13224 whole entry, other chains not shown): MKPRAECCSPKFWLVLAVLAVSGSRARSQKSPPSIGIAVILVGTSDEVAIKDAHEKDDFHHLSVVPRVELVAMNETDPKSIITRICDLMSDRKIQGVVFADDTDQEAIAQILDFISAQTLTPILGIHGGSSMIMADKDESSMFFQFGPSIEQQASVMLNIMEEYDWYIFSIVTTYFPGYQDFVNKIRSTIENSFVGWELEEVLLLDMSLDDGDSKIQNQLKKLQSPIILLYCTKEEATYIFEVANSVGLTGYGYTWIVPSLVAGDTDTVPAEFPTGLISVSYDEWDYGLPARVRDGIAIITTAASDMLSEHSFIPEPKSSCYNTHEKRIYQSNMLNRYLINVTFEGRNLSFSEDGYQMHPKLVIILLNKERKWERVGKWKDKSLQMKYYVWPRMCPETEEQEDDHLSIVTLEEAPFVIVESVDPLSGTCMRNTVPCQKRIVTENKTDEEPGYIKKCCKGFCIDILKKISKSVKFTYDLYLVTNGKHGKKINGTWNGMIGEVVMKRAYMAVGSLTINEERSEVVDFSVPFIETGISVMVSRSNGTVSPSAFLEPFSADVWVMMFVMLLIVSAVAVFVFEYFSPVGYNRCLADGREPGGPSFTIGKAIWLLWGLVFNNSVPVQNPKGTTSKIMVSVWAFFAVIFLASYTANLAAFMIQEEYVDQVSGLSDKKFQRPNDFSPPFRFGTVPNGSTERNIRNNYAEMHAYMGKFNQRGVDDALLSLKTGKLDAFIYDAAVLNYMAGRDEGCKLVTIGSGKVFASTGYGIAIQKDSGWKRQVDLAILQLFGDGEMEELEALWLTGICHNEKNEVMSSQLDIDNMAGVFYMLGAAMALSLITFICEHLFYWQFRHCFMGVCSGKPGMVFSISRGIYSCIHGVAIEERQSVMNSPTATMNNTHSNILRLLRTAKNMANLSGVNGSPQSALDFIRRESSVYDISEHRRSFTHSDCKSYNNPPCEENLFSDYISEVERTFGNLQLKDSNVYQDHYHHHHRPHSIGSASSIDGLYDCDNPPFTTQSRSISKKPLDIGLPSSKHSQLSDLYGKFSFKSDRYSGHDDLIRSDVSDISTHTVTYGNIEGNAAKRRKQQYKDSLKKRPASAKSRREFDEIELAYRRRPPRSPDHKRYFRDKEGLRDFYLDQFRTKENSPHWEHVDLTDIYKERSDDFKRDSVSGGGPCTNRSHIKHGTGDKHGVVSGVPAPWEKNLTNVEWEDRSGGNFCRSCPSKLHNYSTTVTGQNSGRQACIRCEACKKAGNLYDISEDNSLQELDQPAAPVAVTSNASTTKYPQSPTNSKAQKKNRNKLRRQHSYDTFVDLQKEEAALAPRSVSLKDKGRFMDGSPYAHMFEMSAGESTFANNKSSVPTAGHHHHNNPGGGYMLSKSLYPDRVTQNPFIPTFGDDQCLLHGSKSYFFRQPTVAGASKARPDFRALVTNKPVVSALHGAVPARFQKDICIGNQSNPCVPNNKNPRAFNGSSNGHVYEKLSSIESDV
# [6] = target: Glutamate NMDA receptor; GRIN1/GRIN2A (Homo sapiens) (UniProt Q05586+Q12879); conditions: L12-G10, 100 uM
# Description: Inhibition of dexamethasone-induced human NR1-1a/NR2A receptor-mediated excitotoxicity in (S)-glutamate/glycine-stimulated mouse L12-G10 cells assessed as LDH release at 100 uM after 30 mins
# Chain of Acetylcholinesterase (O42275 whole entry): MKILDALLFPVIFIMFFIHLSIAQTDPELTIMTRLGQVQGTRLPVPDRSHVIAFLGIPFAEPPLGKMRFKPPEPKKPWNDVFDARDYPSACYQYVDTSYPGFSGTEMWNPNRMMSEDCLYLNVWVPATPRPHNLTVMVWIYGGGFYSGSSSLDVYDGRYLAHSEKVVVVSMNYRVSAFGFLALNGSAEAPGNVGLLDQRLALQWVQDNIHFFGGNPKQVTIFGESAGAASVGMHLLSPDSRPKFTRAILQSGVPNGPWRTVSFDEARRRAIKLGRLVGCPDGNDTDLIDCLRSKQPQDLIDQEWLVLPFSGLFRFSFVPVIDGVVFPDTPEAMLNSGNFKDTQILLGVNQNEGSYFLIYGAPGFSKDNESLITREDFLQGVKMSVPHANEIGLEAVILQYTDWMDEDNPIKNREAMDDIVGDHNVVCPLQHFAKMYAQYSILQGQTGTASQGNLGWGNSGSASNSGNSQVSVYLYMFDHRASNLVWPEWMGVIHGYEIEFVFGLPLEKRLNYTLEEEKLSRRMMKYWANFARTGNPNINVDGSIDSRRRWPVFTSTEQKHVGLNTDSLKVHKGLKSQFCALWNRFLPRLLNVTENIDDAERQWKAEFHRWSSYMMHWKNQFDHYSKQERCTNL
# Chain of Cholinesterase (P81908 whole entry): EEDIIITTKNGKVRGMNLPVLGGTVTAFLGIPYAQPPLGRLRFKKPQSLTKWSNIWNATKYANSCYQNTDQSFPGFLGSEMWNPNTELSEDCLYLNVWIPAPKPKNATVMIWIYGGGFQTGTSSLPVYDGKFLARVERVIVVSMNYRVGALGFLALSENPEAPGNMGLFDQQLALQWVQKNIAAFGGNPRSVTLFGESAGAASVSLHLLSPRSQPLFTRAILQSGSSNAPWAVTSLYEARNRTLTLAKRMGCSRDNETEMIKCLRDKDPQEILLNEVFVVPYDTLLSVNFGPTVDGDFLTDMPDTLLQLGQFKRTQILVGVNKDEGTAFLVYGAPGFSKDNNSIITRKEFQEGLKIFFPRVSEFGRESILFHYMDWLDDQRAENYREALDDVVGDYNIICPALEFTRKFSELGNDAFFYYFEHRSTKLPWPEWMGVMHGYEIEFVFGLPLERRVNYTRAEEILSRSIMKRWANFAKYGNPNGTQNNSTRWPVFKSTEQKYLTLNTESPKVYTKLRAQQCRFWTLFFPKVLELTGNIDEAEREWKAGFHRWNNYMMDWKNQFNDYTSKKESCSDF
SMILES,IC50 [1] [nM],IC50 [2],Activity [3] [%],CC50 [4] [nM],Ki [5] [nM],inhibition [6] [%]
c1ccc2c(c1)c1ccncc1n2CCCCCn1c2ccccc2c2ccncc21,> 10000,> 1000 nM,–,–,–,–
C[n+]1ccc2c3ccccc3n(CCCCCCCCCCCCn3c4ccccc4c4cc[n+](C)cc43)c2c1.[I-].[I-],1.2,4 nM,52.9,33800,–,–
CCn1c2ccccc2c2ccncc21,> 1000,> 10000 nM,–,–,–,–
[Br-].[Br-].c1ccc2c(c1)[nH]c1c[n+](Cc3ccc(C[n+]4ccc5c(c4)[nH]c4ccccc45)cc3)ccc12,147,439 nM and 473 nM,83.2,> 100000,–,–
[Br-].[Br-].c1ccc2c(c1)[nH]c1c[n+](CCC[n+]3ccc4c(c3)[nH]c3ccccc34)ccc12,7660,652 nM,82.5,> 100000,–,–
[Br-].[Br-].c1ccc2c(c1)[nH]c1c[n+](CCCC[n+]3ccc4c(c3)[nH]c3ccccc34)ccc12,278,78 nM,78.2,> 100000,–,–
[Br-].[Br-].c1ccc2c(c1)[nH]c1c[n+](CCOCCOCCOCC[n+]3ccc4c(c3)[nH]c3ccccc34)ccc12,3140,195 nM,98.6,> 100000,–,–
[Br-].[Br-].c1ccc2c(c1)[nH]c1c[n+](CCCCCC[n+]3ccc4c(c3)[nH]c3ccccc34)ccc12,248,186 nM,75,> 100000,20000,–
[Br-].[Br-].c1ccc2c(c1)[nH]c1c[n+](CCCCCCCCC[n+]3ccc4c(c3)[nH]c3ccccc34)ccc12,125,40 nM,73.8,> 100000,–,–
COc1ccc2[nH]c3c[n+](CCCCC[n+]4ccc5c(c4)[nH]c4ccc(OC)cc45)ccc3c2c1.[Br-].[Br-],> 10000,319 nM,84.1,> 100000,–,–
Oc1ccc2[nH]c3c[n+](CCCCC[n+]4ccc5c(c4)[nH]c4ccc(O)cc45)ccc3c2c1.[Br-].[Br-],4260,1630 nM,71.8,> 100000,–,–
NCCCNCCCCNCCCN,–,–,–,–,–,108
C[n+]1ccc2c3ccccc3n(CCCCCCCCCn3c4ccccc4c4cc[n+](C)cc43)c2c1.[I-].[I-],–,–,78.9,> 100000,–,–
c1ccc2c(c1)c1ccncc1n2CCCCCCCCCCCCn1c2ccccc2c2ccncc21,> 10000,> 10000 nM,100.2,> 100000,–,–
c1cc[n+](CCCCCC[n+]2ccc3c(c2)[nH]c2ccccc23)cc1,564,6330 nM,–,–,–,–
c1ccc2c(c1)c1ccncc1n2CCCCCCCCCn1c2ccccc2c2ccncc21,–,–,67.7,> 100000,–,–
CNC1(c2ccccc2Cl)CCCCC1=O (centres undefined) [KETAMINE],> 10000,> 10000 nM,99.8,> 100000,–,–

SMILES,IC50 [1] [nM],IC50 [2],Activity [3] [%],CC50 [4] [nM],Ki [5] [nM],inhibition [6] [%]
CCn1c2ccccc2c2cc[n+](C)cc21,2570,2020 nM,–,–,–,–
[Br-].[Br-].c1ccc2c(c1)[nH]c1c[n+](CCCCC[n+]3ccc4c(c3)[nH]c3ccccc34)ccc12,595,48.9 nM and 48 nM,92.4,> 100000,–,–
CC12CC3CC(C)(C1)CC(N)(C3)C2 [MEMANTINE],> 10000,> 10000 nM,100.4,> 100000,–,–
[Br-].[Br-].c1ccc2c(c1)[nH]c1c[n+](CCCCCCCCCCC[n+]3ccc4c(c3)[nH]c3ccccc34)ccc12,92,18 nM,60.3,> 100000,–,–
[Br-].[Br-].c1ccc2c(c1)[nH]c1c[n+](CCCCCCCCCC[n+]3ccc4c(c3)[nH]c3ccccc34)ccc12,63,49 nM,67.5,> 100000,–,–
[Br-].[Br-].c1ccc2c(c1)[nH]c1c[n+](CC[n+]3ccc4c(c3)[nH]c3ccccc34)ccc12,430,319 nM,76.6,> 100000,–,–
C[n+]1ccc2c3ccccc3n(CCCCCn3c4ccccc4c4cc[n+](C)cc43)c2c1,280,19 nM,–,–,–,–
c1ccc2c3c([nH]c2c1)CN(CCCCCN1CCc2c([nH]c4ccccc24)C1)CC3,> 1000,> 1000 nM,–,–,–,–
[Br-].[Br-].c1ccc2c(c1)[nH]c1c[n+](CCCCCCCCCCCC[n+]3ccc4c(c3)[nH]c3ccccc34)ccc12,86,22 nM,38,35100,–,–
C[n+]1ccc2c(c1)[nH]c1ccccc12,> 10000,540 nM,–,–,–,–
C[C@]12N[C@H](Cc3ccccc31)c1ccccc12 [DIZOCILPINE],–,–,100.3,> 100000,–,–
[Br-].[Br-].c1ccc2c(c1)[nH]c1c[n+](CCCCCCCC[n+]3ccc4c(c3)[nH]c3ccccc34)ccc12,113,75 nM,51.8,54200,–,–
c1ccc2c3c([nH]c2c1)CN(CCCCCCCCCCN1CCc2c([nH]c4ccccc24)C1)CC3,> 1000,2900 nM,–,–,–,–
c1cc[n+](CCCCCC[n+]2ccccc2)cc1,> 10000,> 10000 nM,–,–,–,–
CCC[n+]1ccc2c(c1)[nH]c1ccccc12,845,2310 nM,–,–,–,–
[Br-].[Br-].c1ccc2c(c1)[nH]c1c[n+](CCCCCCC[n+]3ccc4c(c3)[nH]c3ccccc34)ccc12,81,65 nM,80.1,> 100000,–,–
